Laboratory results taken from US20140328944A1, “USE OF CTBP1 siRNA FOR THE TREATMENT OF GASTRIC CANCER” (CTI, priority 2013, published 2014).

System: AGS and MKN45 gastric cancer cell lines
Test: MTS-based cell proliferation assay after siRNA transfection (drug dose-response)
Details: CTBP1 siRNA (5 nM) vs untreated cells (WT) and control siRNA, 72 h drug incubation
Experimental: MKN45 cell lines were grown in RPM1-1640 media and AGS cell lines in F12K, both media were supplemented with 10% characterized fetal bovine serum (FBS) (Hyclone, Logan, Utah, USA) and 100 U /ml of Penicillin /Streptomycin (Gibco BRL, Gaithersburgh, Md., USA). Cells were grown in an incubator (NUAIRE, Plymouth, USA) at 37° C. with an atmosphere of 5% CO2 and 90% humidity. The drugs 5-FU, Cisplatin and Epirubicin were donated for this research by the Kampar Oncology Laboratory (Santiago, Chile).
In 6-well plates, 200,000 cells were cultured in their respective culture medium with 10% FBS for 24 h at 37° C. and 5% CO2 pressure. Then cells were washed once with PBS IX and 900 ul of their respective medium without serum and without antibiotic were added.
The cells were transfected with a pool of 4 siRNA Flexitube siRNA CTBP1 and siRNA control AllStars Negative Control (QIAGEN, Valencia, Calif., USA) at a concentration of 5 nM with 2.5 ul of Lipofectamine 2000 (Invitrogen, Carlsbad, Calif., USA). […]
24 hours after transfection, cells were seeded in 96 well plates at a concentration of 10,000 cells per well. […] The IC50 values were calculated using GraphPad 5.0 software. The results of the response to the drugs were expressed as mean±SD. […]

Row | Compound | increase in sensitivity to the drug on silencing of CTBP1 with siRNA
1 | COc1cccc2c1C(=O)c1c(O)c3c(c(O)c1C2=O)C[C@@](O)(C(=O)CO)C[C@@H]3O[C@H]1C[C@H](N)[C@@H](O)[C@H](C)O1 [Epirubicin] | 12-17 times
2 | O=c1[nH]cc(F)c(=O)[nH]1 [5-FU, 5-Fluorouracil] | approximately 6 times
